Peptide text beside a SMILES is read from it. * marks the point of attachment. Fmoc = O=C(OCC1c2ccccc2-c2ccccc21)*; Ahx = NCCCCCC(=O)O
Target: cathepsin L (Homo sapiens, UniProt P07711)
Details: 50 µM peptide, citrate buffer 0.1 M pH 5.5, 1 mM EDTA, 2 mM DTT, 37 °C, overnight reaction, product formation by HPLC
Procedure: Activity assay of peptides with cathepsin L.
The reaction mixture was analysed by HPLC to
detect the formation of products from the overnight reaction.
Degradation of non-fluorescent peptides by cathepsin L
A solution of cathepsin L (20 µg/mL, 24 units/L) in citrate buffer 0.1 M pH 5.5, 1 mM EDTA, 2 mM
DTT was preactivated at 25 °C for 15 minutes. A stock solution of peptide 4, 5, 6 or 7 (125 µL, 25 nmol,
0.20 mM in DMSO) was diluted in 365 µL of the assay buffer to a final concentration of 50 µM and pre-
incubated at 37 °C. 10 µL of pre-activated cathepsin L was then added to the peptide solution and
incubated with mild shaking at 37 °C. Aliquots of 100 µL were withdrawn at 0 min, 1 hour and overnight.
Samples were flash-frozen on liquid nitrogen and were heated at 100 °C for 120 seconds prior to the

cathepsin L, sequence (P07711 114-333, species assumed): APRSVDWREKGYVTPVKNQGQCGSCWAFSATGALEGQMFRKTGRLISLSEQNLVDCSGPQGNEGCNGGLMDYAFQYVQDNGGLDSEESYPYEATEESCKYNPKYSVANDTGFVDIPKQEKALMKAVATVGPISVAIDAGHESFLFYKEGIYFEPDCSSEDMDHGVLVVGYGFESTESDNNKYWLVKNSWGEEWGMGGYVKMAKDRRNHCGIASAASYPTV

## CC(C)[C@H](NC(=O)[C@H](Cc1ccccc1)NC(=O)CCCCCNC(=O)CCCCCNC(=O)OCC1c2ccccc2-c2ccccc21)C(=O)N[C@@H](CCCNC(=N)N)C(=O)NCC(=O)N[C@@H](C)C(=O)NCC(=O)N[C@@H](CCC(=O)O)C(N)=O [Peptide 3, Fmoc-Ahx-Ahx-FVRGAGE] ({Fmoc-Ahx-Ahx}-FVRGAGE-NH2)
  Activity assay of peptides with cathepsin L: active
